Experimental data reported in patent publication US6753342B2, “2-(1h-indol-3-yl)-2-oxo-acetamides with antitumor activity” (Novuspharma S.p.A., priority 1999, dated 2004).
≈ marks a conversion by molar mass, not a printed value.

Columns and labels:
[1] = test system: MKN-45 (gastric carcinoma); assay: Cytotoxicity, MTT assay, MKN-45 cells; type: cell-based; conditions: human gastric carcinoma cells, 144 hours incubation, read-out: MKN-45 (IC50, μg/ml)
Procedure: (§1) The compounds according to the invention have been pharmacologically tested against four human tumor cell lines: HT 29 (colon carcinoma), PC 3 (prostate carcinoma), H 460M (lung carcinoma), MKN-45 (gastric carcinoma). Cells were incubated with the tested compound for 144 hours, then cytotoxicity was determined by using the MTT assay (Mosman, T. “Rapid Colorimetric Assay for Cellular Growth and Survival: Application to Proliferation and Cytotoxicity Assay”; J. Immunolog. Methods, (1983), 65, 66; Green, L. M., “Rapid Colorimetric Assay for Cell Viability; Application to the Quantitation of Cytotoxic and Growth Inhibitory Lymphokines”, J. Immunol. Methods, (1984),;70, 257-268).
(§2) The compounds according to the invention have been pharmacologically tested against four human tumour cell lines: HT 29 (colon carcinoma), PC 3 (prostate carcinoma), H 460M (lung carcinoma), MKN45 (gastric carcinoma). Cells were incubated with the tested compound for 144 hours, then cytotoxicity was determined by using the MTT assay (Mosman, T. “Rapid Colorimetric Assay for Cellular Growth and Survival: Application to Proliferation and Cytotoxicity Assay”; J. Immunolog. Methods, (1983), 65, 66; Green, L. M., “Rapid Colorimetric Assay for Cell Viability; Application to the Quantitation of Cytotoxic and Growth Inhibitory Lymphokines”, J. Immunol. Methods, (1984), 70, 257-268).

[2] = test system: PC 3 (prostate carcinoma); assay: Cytotoxicity, MTT assay, PC 3 cells; type: cell-based; conditions: human prostate carcinoma cells, 144 hours incubation, read-out: PC3 (IC50, μg/ml)
Procedure: as §1, §2

H 460M (lung carcinoma) = assay: Cytotoxicity, MTT assay, H 460M cells; type: cell-based; conditions: human lung carcinoma cells, 144 hours incubation, read-out: H460M (IC50, μg/ml)
Procedure: as §1, §2

HT 29 (colon carcinoma) = assay: Cytotoxicity, MTT assay, HT 29 cells; type: cell-based; conditions: human colon adenocarcinoma cells, 144 hours incubation, read-out: HT29 (IC50, μg/ml)
Procedure: as §1, §2

melting point [°C]	SMILES	IC50 [1] [µg/mL]	IC50 [2] [µg/mL]	IC50 (H 460M (lung carcinoma)) [µg/mL]	IC50 (HT 29 (colon carcinoma)) [µg/mL]
190 to 196	NCCNC(=O)c1cccc2c1c(C(=O)C(=O)NC1=CC(=O)OC1)cn2Cc1ccc(Cl)cc1	–	–	–	–
238 to 240	O=C1C=C(NC(=O)C(=O)c2cn(Cc3ccc(Cl)cc3)c3cccc(CO)c23)CO1	–	–	–	–
225 to 227	CN(C)CCNC(=O)c1cccc2c1c(C(=O)C(=O)NC1=CC(=O)OC1)cn2Cc1ccc(Cl)cc1	–	–	–	–

The remaining lines, values behind:

SMILES	melting point [°C]	IC50 [1] [µg/mL]	IC50 [2] [µg/mL]	IC50 (H 460M (lung carcinoma)) [µg/mL]	IC50 (HT 29 (colon carcinoma)) [µg/mL]
O=C1C=C(NC(=O)C(=O)c2cn(Cc3ccc(Cl)cc3)c3ccccc23)CS1	268 to 270	–	–	–	–
O=C1C=C(NC(=O)C(=O)c2cn(Cc3ccc(Cl)cc3)c3ccccc23)CO1 [Example 2, N-(5-oxo-2,5-dihydrofuran-3-yl)-2-(1-(4-chlorobenzyl)-1H-indol-3-yl)-2-oxo-acetamide]	253 to 255	0.048 (≈ 0.122 µM)	0.22 (≈ 0.557 µM)	0.011 (≈ 0.0279 µM)	0.13 (≈ 0.329 µM)
O=C1C=C(NC(=O)C(=O)c2cn(Cc3ccc(F)cc3)c3ccccc23)CO1 [Example 3, N-(5-oxo-2,5-dihydrofuran-3-yl)-2-(1-(4-fluorobenzyl)-1H-indol-3-yl)-2-oxo-acetamide]	260 to 262	0.088 (≈ 0.233 µM)	0.035 (≈ 0.0925 µM)	0.012 (≈ 0.0317 µM)	0.0004 (≈ 0.00106 µM)
O=C1C=C(NC(=O)C(=O)c2cn(Cc3ccc(Cl)cc3)c3cc(Cl)ccc23)CO1 [Example 4]	–	0.12 (≈ 0.28 µM)	0.3 (≈ 0.699 µM)	0.049 (≈ 0.114 µM)	0.1 (≈ 0.233 µM)
